# Source: patent publication US9072746B2, “Method for enhancing learning and memory impaired by neurodegenerative disorders and compounds and compositions for effecting the same” (The Board of Trustees of the Leland Stanford Junior …, priority 2010, dated 2015)
# Entries after “also recorded” stand apart in the source; their conditions may differ.
# Legend:
# Ts65Dn mice [1] = conditions: restoration of norepinephrine level; cited from earlier work
# Ts65Dn mice [2] = conditions: restoration of norepinephrine level; cited from earlier work; remark: listed apart in the source
# C57Bl/6J mice = assay: Contextual fear conditioning memory retrieval (FIG. 10A, B); type: in vivo; conditions: betaxolol 1 mg/kg, atenolol 3 mg/kg s.c.
# Procedure: In all experiments xamoterol 3 mg/kg, atenolol 3 mg/kg, and betaxolol 1 mg/kg were injected subcutaneously. […] Results are shown as mean+SEM (ns=not significant, *=p<0.05, and **=p<0.01).
# male Ts65Dn mice [3] = assay: Contextual fear conditioning; type: in vivo; conditions: betaxolol 1 mg/kg s.c. plus xamoterol 3 mg/kg s.c.
# Procedure: Contextual and Cued fear conditioning was conducted for evaluation of fear-dependent learning and retrieval in the study. The test was performed using chambers from Coulbourn Instruments (Whitehall, Pa.). On the first day, the animals were placed in a chamber (Context A) for 3 min for baseline recording, followed by 5 tone-shock pairings. The shock (0.5 mA, 2 sec) was delivered following the tone (70 dB, 2 kHz, 20 sec) in each conditional/unconditional stimulus pairing. On the second day a novel chamber (Context B; new room, new olfactory environment, texture of floor, blue plastic inserts for walls, extra source of blue light, and visual cues) was used for cued testing. Three tones without shocks were presented to animals during a 3 min testing period following a 3 min pre-tone period. On the last day of the experiment, the mice were placed in Context A for 5 min without any conditional and unconditional stimulus {modified from the method described by (Saxe et al., 2006)}. Freezing was defined as the complete lack of motion for a minimum of 0.75 second as measured by FreezeFrame software (Actimetrics, Evanston, Ill.). The percent of freezing in each period was reported. For the startle response control test, an acoustic startle reflex apparatus (Med Associates Inc., St. Albans, Vt.) was used. The subjects were acclimated to the animal holder in the startle box for a total of 15 min over 3 consecutive-days prior to the experiment. The animals were exposed to 25 different trials with 10-20 second randomly variable inter-trial intervals. Five different intensities of startle pulses, 0, 90, 100, 110, and 120 dB, were randomly used, and each animal was randomly exposed 5 times to each intensity of the startle pulse. The duration of each startle pulse was 40 ms and the peak amplitude of the startle response in each trial was recorded for analysis. The holding cage on the apparatus was cleaned with 10% alcohol between each animal. […] In this part of the study, activity chamber and three cognitive tests, including T-maze spontaneous alternation, contextual fear conditioning (CFC), and novel object recognition were performed. In T-maze spontaneous alternation and contextual fear conditioning, both Ts65Dn and 2N male mice were divided into three treatment groups including normal saline (Vehicle), xamoterol, and betaxolol plus xamoterol groups. In the novel object recognition test, both Ts65Dn and 2N male mice were divided into two treatment groups, normal saline and xamoterol. The T-maze was performed exactly as previously described. […] On the first day (training day), animals were placed in the fear conditioning chamber, and after a 3-minute pre-shock period, they were exposed to 5 shocks (2 s, 0.5 mA,) with inter-trial intervals of 80 seconds and no tone. On the second day, the animals first received xamoterol, xamoterol plus betaxolol, or saline injection, and one hour later, they were placed in the same chamber for 5 minutes. Similar to the previous description of fear conditioning, freezing was defined as the complete lack of motion for a minimum of o.75 second. The Novel Object Recognition task is conducted in an open field arena (40 cm×40 cm). Mice were habituated in the testing room for 1 hour followed by 5 minutes habituation inside the arena without any objects. On 4th day animals were introduced 3 times to arena with 3 identical subjects for 10 minutes with 3 minutes inter trial intervals. On 5th day (24 hours after trainings) one of the objects replaced by a novel one and the time sniffing of each object were used for analysis. For testing the role of β1 adrenergic system, xamoterol and betaxolol (Tocris Bioscience, Ellisville, Mo.) were injected subcutaneously using 10 ml/kg normal saline as vehicle. Xamoterol, (3 mg/kg) was given one hour before testing and betaxolol (1 mg/kg) was given 30 minutes before testing.
# male Ts65Dn mice [4] = assay: T-maze spontaneous alternation; type: in vivo; conditions: betaxolol 1 mg/kg s.c. plus xamoterol 3 mg/kg s.c.
# Excerpt: The T-maze had 3 equal arms (30 cm length, 10 cm width, and 20 cm height). The start arm and 2 goal arms had guillotine gates. This test was based on the rodents' preference to experience a new arm of the T-maze instead of a familiar one ([…], 1998). In each trial, the mouse was placed in the start arm. The gate was then opened and the mouse was able to freely explore the arms. As soon as the mouse entered one goal arm, the sliding gate of the other goal arm closed. The mouse eventually returned to the start arm and the next trial was started. In the next trial, the mouse may recognize the previously chosen goal arm and choose to explore a new arm rather than revisit the previously visited arm. This trial was repeated 11 times per day for 3 consecutive days, for a total of 33 trials. The maze was cleaned with 50% ethanol between trials to eliminate odor. Percent of alternation (number of turns in each goal arm) was used for analysis. This protocol has been described before by Belichenko et al. (2009) and is modified from a Deacon and Rawlins (2006) protocol (Deacon and Rawlins, 2006; Belichenko et al., 2009). […] In this part of the study, activity chamber and three cognitive tests, including T-maze spontaneous alternation, contextual fear conditioning (CFC), and novel object recognition were performed. In T-maze spontaneous alternation and contextual fear conditioning, both Ts65Dn and 2N male mice were divided into three treatment groups including normal saline (Vehicle), xamoterol, and betaxolol plus xamoterol groups. In the novel object recognition test, both Ts65Dn and 2N male mice were divided into two treatment groups, normal saline and xamoterol. The T-maze was performed exactly as previously described. […] On the first day (training day), animals were placed in the fear conditioning chamber, and after a 3-minute pre-shock period, they were exposed to 5 shocks (2 s, 0.5 mA,) with inter-trial intervals of 80 seconds and no tone. On the second day, the animals first received xamoterol, xamoterol plus betaxolol, or saline injection, and one hour later, they were placed in the same chamber for 5 minutes. Similar to the previous description of fear conditioning, freezing was defined as the complete lack of motion for a minimum of o.75 second. The Novel Object Recognition task is conducted in an open field arena (40 cm×40 cm). Mice were habituated in the testing room for 1 hour followed by 5 minutes habituation inside the arena without any objects. On 4th day animals were introduced 3 times to arena with 3 identical subjects for 10 minutes with 3 minutes inter trial intervals. On 5th day (24 hours after trainings) one of the objects replaced by a novel one and the time sniffing of each object were used for analysis. For testing the role of β1 adrenergic system, xamoterol and betaxolol (Tocris Bioscience, Ellisville, Mo.) were injected subcutaneously using 10 ml/kg normal saline as vehicle. Xamoterol, (3 mg/kg) was given one hour before testing and betaxolol (1 mg/kg) was given 30 minutes before testing.
SMILES,effect on nesting behavior (Ts65Dn mice [1]),effect on hippocampal-mediated contextual deficit in fear conditioning (Ts65Dn mice [2]),effect on memory retrieval of contextual fear conditioning (C57Bl/6J mice),effect of betaxolol on xamoterol's rescue of contextual fear conditioning (male Ts65Dn mice [3]),effect of betaxolol on xamoterol's rescue of spontaneous alternation (male Ts65Dn mice [4])
"N[C@H](C(=O)O)[C@H](O)c1ccc(O)c(O)c1 [L-DOPS, L-threo-3,4-dihydroxyphenylserine]",restored,restored,–,–,–
CC(C)NCC(O)COc1ccc(CC(N)=O)cc1 (stereo not drawn) [atenolol],–,–,did not have such an effect,–,–
CC(C)NCC(O)COc1ccc(CCOCC2CC2)cc1 (stereo not drawn) [betaxolol],–,–,impaired,completely reversed; also recorded: prevents or blocks; also recorded: completely blocked; also recorded: betaxolol prevents this effect,completely reversed; also recorded: prevented or blocked; also recorded: blocked; also recorded: betaxolol prevents this effect
